Results: ChEMBL document CHEMBL1150761, “Additional biologically active constituents of the Chinese tallow tree (Sapium sebiferum)” (1988)
Converted amounts (≈) assume the structure as drawn.

System: P388
Assay: Cytotoxicity against mouse P388 cells
Assay type: functional
Conditions: read-out: ED50 (the source's name)

SMILES	EC50 [µg/mL]
O=c1c(O)c(-c2ccc(O)c(O)c2)oc2cc(O)cc(O)c12 [QUERCETIN]	40 (≈ 132 µM)
CC1(C)CC(O)C[C@@]2(C)OC(=O)C=C12 (stereo partly specified)	15 (≈ 76.4 µM)
O=C(O)c1cc(O)c(O)c(O)c1 [GALLIC ACID]	0.7 (≈ 4.11 µM)
CC[C@H](CC[C@@H](C)[C@H]1CC[C@H]2[C@@H]3CC=C4C[C@@H](O[C@@H]5O[C@H](CO)[C@@H](O)[C@H](O)[C@H]5O)CC[C@]4(C)[C@H]3CC[C@]12C)C(C)C [SITOGLUSIDE]	53 (≈ 91.9 µM)
O=c1c(O)c(-c2ccc(O)cc2)oc2cc(O)cc(O)c12 [KAEMPFEROL]	6.7 (≈ 23.4 µM)
O=c1c(O[C@@H]2O[C@H](CO)[C@@H](O)[C@H](O)[C@H]2O)c(-c2ccc(O)cc2)oc2cc(O)cc(O)c12 [ASTRAGALIN]	8.2 (≈ 18.3 µM)
